# Source: ChEMBL document CHEMBL1201862, “PubChem BioAssay data set” (2004)
# Calls of active or inactive are those of the source.
# Experiments:
# [1] = molecular target: T1, Trace amine-associated receptor 1 (Homo sapiens, UniProt Q96RJ0); test: Fluorescence-based cell-based high throughput dose response assay to identify antagonists of the human trace amine associated receptor 1 (TAAR1).; type: functional
# T1 sequence (Q96RJ0 whole entry): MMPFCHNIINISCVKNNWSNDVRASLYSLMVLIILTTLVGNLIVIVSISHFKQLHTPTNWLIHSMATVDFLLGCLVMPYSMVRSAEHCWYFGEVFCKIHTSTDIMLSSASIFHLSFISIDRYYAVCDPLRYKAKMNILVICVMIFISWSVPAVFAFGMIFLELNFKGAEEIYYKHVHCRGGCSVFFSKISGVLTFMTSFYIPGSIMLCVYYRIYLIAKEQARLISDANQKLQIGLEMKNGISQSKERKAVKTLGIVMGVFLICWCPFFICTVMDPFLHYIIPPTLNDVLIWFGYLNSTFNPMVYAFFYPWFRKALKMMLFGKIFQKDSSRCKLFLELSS
# [2] = Counterscreen for antagonists of the human trace amine associated receptor 1 (hTAAR1): Fluorescence-based cell-based high throughput dose response assay to identify nonselective Ga16 antagonists.; type: functional
# [3] = molecular target: T1, Trace amine-associated receptor 1; test: Counterscreen for antagonists of the human trace amine associated receptor 1 (hTAAR1): Fluorescence-based cell-based high throughput dose response assay to identify TAAR1 Agonists.; type: functional
# [4] = Counterscreen for […] of the human trace amine associated receptor 1 (TAAR1): Fluorescence-based cell-based high throughput dose response assay to identify nonselective Ga16 agonists.; type: functional
# [5] = molecular target: Disintegrin and metalloproteinase domain-containing protein 17 (Homo sapiens, UniProt P78536); test: inhibition of ADAM17 substrate cleavage – biochemical, quenched FRET substrate, counter-screen for ADAM10 exosite inhibitor project, dose response (AID 743253)
# [6] = potency of ADAM10 substrate cleavage blockers – biochemical, QFRET, dose response (AID 743254);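 further: ADAM10 enzyme with the DM2 quenched FRET peptide as substrate; EDANS fluorescence gain as the protease cuts the substrate; inhibitor potency against ADAM10 proteolytic activity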
# [7] = Luminescence Cell-Based Dose Retest to Confirm Inhibitors of Cancer Stem Cells. [Related pubchem assays (depositor defined):AID2717, AID2721]; type: functional; settings: Homo sapiens
# [8] = molecular target: COUP transcription factor 2 (Homo sapiens, UniProt P24468); test: Luminescence-based cell-based high throughput dose response assay to identify inhibitors of COUP-TFII (NR2F2).; type: functional;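 further: HEK293 cells transiently cotransfected with COUP-TFII expression vector and reporter; luciferase reporter luminescence driven by COUP-TFII from the pX2-168 reporter plasmid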
# Galanin receptor type 3 = molecular target: T2, Galanin receptor type 3 (Homo sapiens, UniProt O60755); test: Fluorescence-based cell-based primary high throughput dose response assay to identify antagonists of the Galanin Receptor 3 (GalR3).; type: functional
# T2 sequence (O60755 whole entry): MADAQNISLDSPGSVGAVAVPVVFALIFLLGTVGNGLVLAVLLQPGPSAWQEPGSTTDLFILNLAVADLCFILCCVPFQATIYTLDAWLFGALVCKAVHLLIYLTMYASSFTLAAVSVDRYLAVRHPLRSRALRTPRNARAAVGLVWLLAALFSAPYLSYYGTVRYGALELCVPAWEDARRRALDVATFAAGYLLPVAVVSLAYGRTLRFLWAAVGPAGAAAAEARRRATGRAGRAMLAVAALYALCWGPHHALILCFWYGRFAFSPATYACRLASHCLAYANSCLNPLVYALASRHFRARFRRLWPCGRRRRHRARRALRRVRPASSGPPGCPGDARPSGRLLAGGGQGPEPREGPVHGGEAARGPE
# cells [9] = type: functional, cell-based; settings: HEK-CNG
# fMet-Leu-Phe receptor = fMet-Leu-Phe receptor (Homo sapiens, UniProt P21462); test: formyl peptide receptor binders – dose response (AID 519); type: functional
# Prothrombin = Prothrombin (Homo sapiens, UniProt P00734); test: Thrombin 1536 HTS Dose Response Confirmation. [Related pubchem assays: 1046 (Thrombin 1536 HTS; hits were confirmed in this assay)]; type: functional
# Protein Tat = Protein Tat (Human immunodeficiency virus type 1 group M subtype B (isolate HXB2)(HIV-1), UniProt P04608); type: functional;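 further: tat binding to TAR RNA read out by fluorescence polarization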
# Major prion protein = Major prion protein (Homo sapiens, UniProt P04156); type: functional, cell-based
# cells [10] = test: cells
# [11] = Trypanosoma cruzi growth suppression in host cells – NIH3T3 host cells, beta-gal luminescence, confirmation (AID 2044); type: functional, cell-based;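 further: intracellular parasites grown in NIH/3T3 mouse fibroblasts as host cells; luminescent beta-galactosidase reporter signal from transgenic T. cruzi replicating inside host cells; inhibitors lower the luminescence signal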
# [12] = NIH3T3 cell viability loss – ATP luminescence, mouse fibroblasts, counter-screen, dose response (AID 2010); type: functional, cell-based;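 further: cells exposed to compound for about 90 hours before reading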
# [13] = fluconazole-exposed Candida albicans growth modulators – fluorescence, retest, confirmation (AID 2467); type: functional, cell-based
# [14] = NIH-3T3 fibroblast cytotoxicity, dose response, cytotoxicity control, cell-based, fluorescence, Alamar Blue, secondary assay (AID 2327); type: functional;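 further: NIH-3T3 mouse fibroblasts cultured with fluconazole at 8 µg/mL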
# [15] = molecular target: Induced myeloid leukemia cell differentiation protein Mcl-1 (Homo sapiens, UniProt Q07820); type: functional
# [16] = molecular target: T3, Probable nicotinate-nucleotide adenylyltransferase (Staphylococcus aureus (strain N315), UniProt P65502); type: functional, Staphylococcus aureus subsp. aureus N315;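 on IC50 Mean: confirmatory dose-response retesting of NadD inhibitor hits first found in an ultra-high-throughput screen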
# [17] = molecular target: T4, Carboxy-terminal domain RNA polymerase II polypeptide A small phosphatase 1 (Homo sapiens, UniProt Q9GZU7); test: CTDSP1 inhibitors, concentration-response, biochemical, absorbance readout, ultra-high-throughput screen actives (AID 540297); type: functional
# T4 sequence (Q9GZU7 whole entry): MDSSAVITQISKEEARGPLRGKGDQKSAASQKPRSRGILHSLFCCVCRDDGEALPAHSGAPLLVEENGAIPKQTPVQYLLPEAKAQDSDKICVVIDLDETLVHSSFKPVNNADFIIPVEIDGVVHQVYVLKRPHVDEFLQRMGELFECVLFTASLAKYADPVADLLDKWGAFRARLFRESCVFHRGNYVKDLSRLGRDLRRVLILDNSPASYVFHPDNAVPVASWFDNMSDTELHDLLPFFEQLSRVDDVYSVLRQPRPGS
# [18] = Luminescence-based cell-based high throughput dose response assay to identify activators of the DAF-12 from the parasite S. stercoralis (ssDAF-12).; type: functional
# [19] = molecular target: T3, Probable nicotinate-nucleotide adenylyltransferase; type: functional, Staphylococcus aureus subsp. aureus N315; settings: read-out: IC50_Mean
# [20] = HEK293 Cytotoxicity Assay Measured in Cell-Based System Using Plate Reader - 7071-01_Inhibitor_Dose_CherryPick_Activity_Set2.; type: functional
# HeLa = test: viability loss in HeLa cells – cell-based, ATP luminescence, cherry-pick samples, cytotoxicity control, dose response (AID 687004); type: functional
# HEK293 = test: viability loss in HEK293T cells – cell-based, ATP luminescence, cherry-pick samples, cytotoxicity control, dose response (AID 687005); type: functional; settings: Homo sapiens;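 further: cells exposed to compound for 48 hours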
# Cryptococcus neoformans [21] = test: Cryptococcus growth inhibition by alamar blue – cell lysis, cherry-picks, replicate tests, mechanism study for C. neoformans antifungal project, dose response (AID 686999); type: functional, organism-based
# Cryptococcus neoformans [22] = test: PubChem AID 686997; type: functional, organism-based
# Paired box protein Pax-8 = Paired box protein Pax-8 (Homo sapiens, UniProt Q06710); test: PAX8 transcriptional activity inhibition in RMG-I – RMG-I cells, luciferase, cherry-pick, dose response (AID 687027); type: functional, cell-based;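 further: luciferase reporter driven by Pax8 target thyroperoxidase promoter measured by SteadyGlo luminescence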
# [23] = A2780 cell killing – plate reader, dry powder samples, cytotoxicity control, dose response (AID 743046); type: functional, cell-based
# [24] = molecular target: T5, Oxysterols receptor LXR-beta (Homo sapiens, UniProt P55055); type: functional, cell-based;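 further: Cell-based luminescence dose-response assay of agonist activity at LXR, run as a confirmatory counterscreen to a daf-12 agonist screen; HEK293 cells with Gal4-LXR fusion and GAL4-driven luciferase reporter; agonist potency from rising luciferase signal of a Gal4-LXR reporter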
# T5 sequence (P55055 whole entry): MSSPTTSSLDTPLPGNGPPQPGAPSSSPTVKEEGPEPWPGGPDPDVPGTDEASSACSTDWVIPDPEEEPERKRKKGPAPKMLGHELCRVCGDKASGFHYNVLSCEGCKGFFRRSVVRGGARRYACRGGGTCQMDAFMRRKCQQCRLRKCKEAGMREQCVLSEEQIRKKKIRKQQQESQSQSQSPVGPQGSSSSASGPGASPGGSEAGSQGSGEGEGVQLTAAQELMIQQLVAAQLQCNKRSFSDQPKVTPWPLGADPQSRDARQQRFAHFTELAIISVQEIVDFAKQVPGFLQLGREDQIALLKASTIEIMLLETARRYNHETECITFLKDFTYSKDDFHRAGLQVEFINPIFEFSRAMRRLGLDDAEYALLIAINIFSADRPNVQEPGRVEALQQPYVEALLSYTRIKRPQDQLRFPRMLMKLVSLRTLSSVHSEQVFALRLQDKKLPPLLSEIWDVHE
# cells [25] = test: cells; remark: listed apart in the source
# [26] = toxicity to HepG2 liver cells – cell-based, plate reader, dry powder, set 6, cytotoxicity control, dose response (AID 743311); type: functional
# cells [27] = settings: HEK293;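 further: cells exposed to compound for 48 hours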
# [28] = toxicity to A549 lung cells – cell-based, plate reader, dry powder, set 6, cytotoxicity control, dose response (AID 743312); type: functional
# [29] = growth inhibition of PfATP4-mutant resistant parasites – NITD609-resistant line, SYBR Green, dry powder, dose response (AID 1159571); type: functional, cell-based;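 further: parasites synchronized at ring stage by sorbitol before testing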
# [30] = growth inhibition of yeast DHODH-expressing 3D7 parasites – SYBR Green, dry powder samples, dose response (AID 1159570); type: functional, cell-based;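 further: parasite growth measured after 72 hours of compound exposure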
# [31] = Dd2 malaria parasite growth inhibition potency – SYBR Green, dry powder samples, dose response (AID 1159566); type: functional, cell-based;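 further: potency for growth inhibition with lower SYBR green DNA signal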
# [32] = P. falciparum Dd2 growth inhibitors, dose response, SYBR Green, cherry-picked samples (AID 1159567); type: functional, cell-based
structure (smiles),measurement,setting,value
CC(C)C[C@H](NC(=O)c1[nH]cnc1C(=O)NCC(=O)OCc1ccccc1)C(=O)OCc1ccccc1,IC50,[1],4.32 µM (active)
same,IC50,[2],> 29.9 µM (inactive)
same,EC50,[3],> 29.9 µM (inactive)
same,EC50,[4],> 29.9 µM (inactive)
COc1ccccc1Nc1ccc(NC(=O)c2cccc([N+](=O)[O-])c2C)cc1,IC50,[5],> 69.5 µM (inactive)
same,IC50,[6],15.4 µM (inactive)
same,AC50,[7],3.32 µM (active)
CC(C)c1ccc(CN2CCN(C(=O)CSc3nnnn3C3CC3)CC2)cc1,IC50,[8],8.28 µM (active)
same,IC50,Galanin receptor type 3,1.34 µM (active)
same,EC50,cells [9],> 29.9 µM (inactive)
Cc1cc(N2C(=O)C(O)=C(C(=O)c3ccco3)C2c2cccnc2)no1 (configuration not stated),Ki,fMet-Leu-Phe receptor,> 66.7 µM (inactive)
CN1C(=O)/C(=C2\SC(=S)N(C(CCC(=O)O)C(=O)O)C2=O)c2ccccc21 (configuration not stated),Ki,fMet-Leu-Phe receptor,> 66.7 µM (inactive)
same,IC50,Prothrombin,> 50 µM (not active)
Cc1cc(-c2csc(NC(=O)c3cc4ccccc4o3)n2)c(C)n1C,IC50,Protein Tat,> 100 µM (active)
O=C(COc1ccc2ccccc2c1Br)Nc1ccncc1,IC50,Major prion protein,10.4 µM (inactive)
same,IC50,cells [10],> 138 µM (inactive)
O=C(NNc1ccccc1)C(=O)NNS(=O)(=O)c1ccc(CCCl)cc1,IC50,[5],27 µM (inactive)
same,EC50,[11],2 µM (active)
same,IC50,[6],23.4 µM (inactive)
same,EC50,[12],3.48 µM (active)
same,EC50,[13],> 38 µM (not active)
same,EC50,[14],2.67 µM (inconclusive)
Cc1csc(NC(=O)c2cc(-c3ccco3)nc3ccccc23)n1,IC50,[15],4.03 µM (active)
same,IC50,[16],9.45 µM (active)
same,IC50,[17],4.76 µM (active)
same,IC50,[18],> 67.5 µM (inactive)
same,IC50,[19],18.4 µM (active)
CC(C)(C)c1nc(SCC(=O)NNC(=O)c2ccccc2)c2ccccc2n1,IC50,Major prion protein,5.46 µM (active)
same,IC50,cells [10],> 138 µM (inactive)
O=[N+]([O-])c1ccc(-c2c(-c3ccccc3)ncc3ccc(F)cc23)cc1,IC50,[1],1.83 µM (active)
same,IC50,[2],> 29.9 µM (inactive)
same,EC50,[3],> 29.9 µM (inactive)
same,EC50,[4],> 29.9 µM (inactive)
COC(=O)C1=C(C)N(CC(C)C)C(=S)NC1c1ccc(-c2ccccc2)cc1 (configuration not stated),AC50,[20],20.4 µM (active)
same,AC50,HeLa,> 52 µM (inactive)
same,AC50,HeLa; Homo sapiens,42 µM (active)
same,AC50,HEK293,20.4 µM (active)
same,AC50,Cryptococcus neoformans [21],51.6 µM (active)
same,AC50,Cryptococcus neoformans [22],23.6 µM (active)
same,AC50,Cryptococcus neoformans [22]; Cryptococcus neoformans,15.6 µM (active)
C[C@H]1CN([C@@H](C)CO)C(=O)Cc2cc(NC(=O)Nc3ccc(C(F)(F)F)cc3)ccc2O[C@H]1CN(C)C(=O)Nc1ccc(C(F)(F)F)cc1,AC50,Paired box protein Pax-8,13 µM (active)
same,AC50,[23],25.8 µM (active)
Cc1ccsc1/C=N/N=C/c1sccc1C,EC50,[24],> 67.5 µM (inactive)
same,EC50,cells [25],> 67.5 µM (inactive)
CC(C)(C)c1ccc(OCCn2cnc3ccccc32)c(Cl)c1,AC50,[26],36.6 µM (active)
same,AC50,cells [27],37.4 µM (active)
CC(C)(C)c1ccc(OCCn2c(CO)nc3ccccc32)cc1,AC50,cells [27],21.6 µM (active)
same,AC50,[28],20.6 µM (active)
OC[C@H]1CC[C@@H]2O[C@H](CCc3ccc(C#CCc4ccccc4)cc3)[C@H](n3cc(-c4ccccc4)nn3)C[C@@H]2O1,AC50,[29],0.665 µM (active)
same,AC50,[30],1.39 µM (active)
same,AC50,[31],0.407 µM (active)
same,AC50,[32],0.739 µM (active)
